# Measurements reported in patent publication US11351206B2, “Probiotic sports nutrition compositions” (Ganeden Biotech, Inc., priority 2011, dated 2022).
# Test system: various bacterial pathogens
# Assay: Zone of inhibition assay, positive control
# Format: cell-based
# Details: 1 μl volume
# Description: The probiotic organisms described herein, e.g., Bacillus coagulans strain GBI-30 or GANEDEN BC-30™, ATCC Designation Number PTA-6086, promote digestive and oral health and support the immune system. The ability of Bacillus coagulans to inhibit various bacterial pathogens was quantitatively ascertained by use of an in vitro assay. This assay is part of a standardized bacterial pathogen screen (developed by the U.S. Food and Drug Administration (FDA)) and is commercially available on solid support disks (DIFCO® BACTROL® Antibiotic Disks). To perform the assay, potato-dextrose plates)(DIFCO® were initially prepared using standard procedures. The plates were then individually inoculated with the bacteria (approximately 1.5×10^6 CFU) to be tested so as to form a confluent bacterial bed.
# Inhibition of microorganisms (e.g. gastrointestinal pathogens) by Bacillus coagulans was subsequently ascertained by placing approximately 1.8×10^6 CFU of Bacillus coagulans in 10 μl of broth or buffer, directly in the center of the potato-dextrose plate with one test locus being approximately 8 mm in diameter per plate. A minimum of three test loci were used for each assay. […] The plates were then incubated for approximately about 18 hr at 30° C., at which time the zones of inhibition were measured. […]
smiles,measurement,setting,value
O=CCCCC=O [glutaraldehyde],inhibition,about 18 hr at 30° C.,excellent “inhibition”
same,zone of inhibition diameter,average of three tests,approximately 16.2 mm
